Molecules are shown by their SMILES.

A short description of this data set: Fluorescence of the compound (precondition of the staining test). It is filed as physicochemical. How it is done: Four-micrometer thick paraffin sections from an APP23 mouse at 26 months of age are deparaffinized in xylene and rehydrated. 10 mg of the compound are dissolved in 1 mL DMSO and diluted with deionized water 1:10. This staining solution is applied on sections for about 20 min. Section background is cleared by washing with 95% ethanol. Finally sections are dehydrated in 99% ethanol, cleared in xylene and mounted with Vectashield™. Sections are investigated using fluorescence microscopy with the following filter combination: Excitation 450490 nm, emission 510 nm. Twenty micrometer thick cryotom sections from a AD brain cortex are air dried and fixated in 4% PFA for 5 min. After washing in tap water sections are stained either with Thioflavine S or with the compound for 5 min and further processed as described above. The compound is dissolved in DMSO and diluted to a final concentration of 0.01% with 50% Ethanol, Thioflavine S is dissolved in 50% Ethanol, final concentration is 0.01%.
Turning to `CNc1cccc(-c2ccc3nonc3c2)c1` [Example 4, (3Benzo[1,2,5]oxadiazol-5-yl-phenyl)-methyl-amine], the Fluorescence result is recorded as “not fluorescent”.

On to `FCCOc1ccc(-c2ccc3nonc3c2)cc1` [Example 5, 5-[4-(2-Fluoro-ethoxy)-phenyl]-benzo[1,2,5]oxadiazole], for which the Fluorescence result is recorded as “not fluorescent”.

With `O=C(NCCF)c1cncc(-c2ccc3nonc3c2)c1` [Example 11, 5Benzo[1,2,5]oxadiazol-5-yl-N-(2-fluoro-ethyl)-nicotinamide], the Fluorescence result was “not fluorescent”.

Turning to `O=C(NCCF)c1cnccc1-c1ccc2nonc2c1` [Example 12, 4Benzo[1,2,5]oxadiazol-5-yl-N-(2-fluoro-ethyl)-nicotinamide], the Fluorescence entry was “not fluorescent”.

Turning to `CNc1ccc(-c2ccc3nonc3c2)cc1[N+](=O)[O-]` [Example 21, (4Benzo[1,2,5]oxadiazol-5-yl-2-nitro-phenyl)-methyl-amine], the Fluorescence entry is “not fluorescent”.

For the origin of these results see patent publication US7632851B2, “Benzo[1,2,5]oxadiazoles and benzol[1,2,5]thiadiazoles useful as histopathological staining agents, imaging agents and biomarkers” (Novartis AG, priority 2003, dated 2009).
